Results published in the supplement of paper PMC10307832.

Legend:
Assay in all cases: relative viability (nuclei count vs DMSO), 5 days (fraction); higher = more cells survive
201T = test system: 201T
Procedure, shortened: (§1)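 Relative viability equals treated-well nuclei counts divided by vehicle-well nuclei counts. Counts came from 4× images of lung cancer cell lines grown in 1536-well plates for 5 days after pin-tool dosing on the day after seeding. Dosing used one drug alone or a fixed anchor-drug dose plus five library-drug doses (not always all listed) in √10 steps, and values are medians of duplicate plates.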

BEN = test system: BEN
Procedure, shortened: as §1

EMC-BAC-2 = test system: EMC-BAC-2
Procedure, shortened: as §1

HARA = test system: HARA
Procedure, shortened: as §1

LCLC-103H = test system: LCLC-103H
Procedure, shortened: as §1

LOU-NH91 = test system: LOU-NH91
Procedure, shortened: as §1

NCI-H1395 = test system: NCI-H1395
Procedure, shortened: as §1

NCI-H1993 = test system: NCI-H1993
Procedure, shortened: as §1

NCI-H2023 = test system: NCI-H2023
Procedure, shortened: as §1

NCI-H2087 = test system: NCI-H2087
Procedure, shortened: as §1

NCI-H2126 = test system: NCI-H2126
Procedure, shortened: as §1

NCI-H2347 = test system: NCI-H2347
Procedure, shortened: as §1

NCI-H23 = test system: NCI-H23
Procedure, shortened: as §1

NCI-H3122 = test system: NCI-H3122
Procedure, shortened: as §1

NCI-H441 = test system: NCI-H441
Procedure, shortened: as §1

NCI-H522 = test system: NCI-H522
Procedure, shortened: as §1

NCI-H596 = test system: NCI-H596
Procedure, shortened: as §1

NCI-H647 = test system: NCI-H647
Procedure, shortened: as §1

NCI-H650 = test system: NCI-H650
Procedure, shortened: as §1

NCI-H727 = test system: NCI-H727
Procedure, shortened: as §1

NCI-H838 = test system: NCI-H838
Procedure, shortened: as §1

For COc1cc2nccc(Oc3ccc(NC(=O)Nc4cc(C)on4)c(Cl)c3)c2cc1OC [Tivozanib] + Cc1nc(Nc2ncc(C(=O)Nc3c(C)cccc3Cl)s2)cc(N2CCN(CCO)CC2)n1 [Dasatinib] (partner 0.075 µM), the relative viability (201T; first compound 0.005 µM) was 0.536, the relative viability (201T; first compound 0.01581 µM) was 0.566 and the relative viability (201T; first compound 0.05 µM) was 0.6. It also gave a relative viability (201T; first compound 0.1581 µM) of 0.57, a relative viability (201T; first compound 0.5 µM) of 0.553 and a relative viability (BEN; first compound 0.005 µM) of 0.254. It also gave a relative viability (BEN; first compound 0.01581 µM) of 0.342, a relative viability (BEN; first compound 0.05 µM) of 0.369 and a relative viability (BEN; first compound 0.1581 µM) of 0.225. It also gave a relative viability (BEN; first compound 0.5 µM) of 0.25, a relative viability (EMC-BAC-2; first compound 0.005 µM) of 0.313 and a relative viability (EMC-BAC-2; first compound 0.01581 µM) of 0.314. The relative viability (EMC-BAC-2; first compound 0.05 µM) was 0.313, the relative viability (EMC-BAC-2; first compound 0.1581 µM) was 0.273 and the relative viability (EMC-BAC-2; first compound 0.5 µM) was 0.237. It also gave a relative viability (HARA; first compound 0.005 µM) of 0.242, a relative viability (HARA; first compound 0.01581 µM) of 0.269 and a relative viability (HARA; first compound 0.05 µM) of 0.286. It also gave a relative viability (HARA; first compound 0.1581 µM) of 0.19, a relative viability (HARA; first compound 0.5 µM) of 0.251 and a relative viability (LCLC-103H; first compound 0.005 µM) of 0.459. It also gave a relative viability (LCLC-103H; first compound 0.01581 µM) of 0.524, a relative viability (LCLC-103H; first compound 0.05 µM) of 0.513 and a relative viability (LCLC-103H; first compound 0.1581 µM) of 0.433. It also gave a relative viability (LCLC-103H; first compound 0.5 µM) of 0.469, a relative viability (LOU-NH91; first compound 0.005 µM) of 0.514 and a relative viability (LOU-NH91; first compound 0.01581 µM) of 0.569. For the same compound, the relative viability (LOU-NH91; first compound 0.05 µM) was 0.595, the relative viability (LOU-NH91; first compound 0.1581 µM) was 0.518 and the relative viability (LOU-NH91; first compound 0.5 µM) was 0.525. The relative viability (NCI-H1395; first compound 0.005 µM) was 0.376, the relative viability (NCI-H1395; first compound 0.01581 µM) was 0.407 and the relative viability (NCI-H1395; first compound 0.05 µM) was 0.404. The relative viability (NCI-H1395; first compound 0.1581 µM) was 0.386, the relative viability (NCI-H1395; first compound 0.5 µM) was 0.371 and the relative viability (NCI-H1993; first compound 0.005 µM) was 0.609. For the same compound, the relative viability (NCI-H1993; first compound 0.01581 µM) was 0.605, the relative viability (NCI-H1993; first compound 0.05 µM) was 0.692 and the relative viability (NCI-H1993; first compound 0.1581 µM) was 0.496. For the same compound, the relative viability (NCI-H1993; first compound 0.5 µM) was 0.504, the relative viability (NCI-H2023; first compound 0.005 µM) was 0.515 and the relative viability (NCI-H2023; first compound 0.01581 µM) was 0.577. For the same compound, the relative viability (NCI-H2023; first compound 0.05 µM) was 0.55, the relative viability (NCI-H2023; first compound 0.1581 µM) was 0.561 and the relative viability (NCI-H2023; first compound 0.5 µM) was 0.523. For the same compound, the relative viability (NCI-H2087; first compound 0.005 µM) was 0.6, the relative viability (NCI-H2087; first compound 0.01581 µM) was 0.742 and the relative viability (NCI-H2087; first compound 0.05 µM) was 0.794. The relative viability (NCI-H2087; first compound 0.1581 µM) was 0.911, the relative viability (NCI-H2087; first compound 0.5 µM) was 0.772 and the relative viability (NCI-H2126; first compound 0.005 µM) was 0.499. For the same compound, the relative viability (NCI-H2126; first compound 0.01581 µM) was 0.567, the relative viability (NCI-H2126; first compound 0.05 µM) was 0.636 and the relative viability (NCI-H2126; first compound 0.1581 µM) was 0.412. It also gave a relative viability (NCI-H2126; first compound 0.5 µM) of 0.494, a relative viability (NCI-H2347; first compound 0.01581 µM) of 0.308 and a relative viability (NCI-H2347; first compound 0.05 µM) of 0.294. It also gave a relative viability (NCI-H2347; first compound 0.5 µM) of 0.281, a relative viability (NCI-H23; first compound 0.005 µM) of 0.693 and a relative viability (NCI-H23; first compound 0.01581 µM) of 0.707. It also gave a relative viability (NCI-H23; first compound 0.05 µM) of 0.769, a relative viability (NCI-H23; first compound 0.1581 µM) of 0.389 and a relative viability (NCI-H23; first compound 0.5 µM) of 0.753. The relative viability (NCI-H3122; first compound 0.005 µM) was 0.986, the relative viability (NCI-H3122; first compound 0.01581 µM) was 0.821 and the relative viability (NCI-H3122; first compound 0.05 µM) was 0.754. It also gave a relative viability (NCI-H3122; first compound 0.1581 µM) of 0.604, a relative viability (NCI-H3122; first compound 0.5 µM) of 0.887 and a relative viability (NCI-H441; first compound 0.005 µM) of 0.642. It also gave a relative viability (NCI-H441; first compound 0.01581 µM) of 0.584, a relative viability (NCI-H441; first compound 0.05 µM) of 0.498 and a relative viability (NCI-H441; first compound 0.1581 µM) of 0.625. For the same compound, the relative viability (NCI-H441; first compound 0.5 µM) was 0.394, the relative viability (NCI-H522; first compound 0.005 µM) was 0.731 and the relative viability (NCI-H522; first compound 0.01581 µM) was 0.9. For the same compound, the relative viability (NCI-H522; first compound 0.05 µM) was 0.836, the relative viability (NCI-H522; first compound 0.1581 µM) was 0.845 and the relative viability (NCI-H522; first compound 0.5 µM) was 0.74. The relative viability (NCI-H596; first compound 0.005 µM) was 0.55, the relative viability (NCI-H596; first compound 0.01581 µM) was 0.591 and the relative viability (NCI-H596; first compound 0.05 µM) was 0.575. For the same compound, the relative viability (NCI-H596; first compound 0.5 µM) was 0.522, the relative viability (NCI-H647; first compound 0.005 µM) was 0.152 and the relative viability (NCI-H647; first compound 0.01581 µM) was 0.227. The relative viability (NCI-H647; first compound 0.05 µM) was 0.189, the relative viability (NCI-H647; first compound 0.1581 µM) was 0.193 and the relative viability (NCI-H647; first compound 0.5 µM) was 0.15. It also gave a relative viability (NCI-H650; first compound 0.005 µM) of 0.344, a relative viability (NCI-H650; first compound 0.01581 µM) of 0.509 and a relative viability (NCI-H650; first compound 0.05 µM) of 0.447. It also gave a relative viability (NCI-H650; first compound 0.1581 µM) of 0.368, a relative viability (NCI-H650; first compound 0.5 µM) of 0.387 and a relative viability (NCI-H727; first compound 0.005 µM) of 0.339. The relative viability (NCI-H727; first compound 0.01581 µM) was 0.33, the relative viability (NCI-H727; first compound 0.05 µM) was 0.44 and the relative viability (NCI-H727; first compound 0.1581 µM) was 0.328. For the same compound, the relative viability (NCI-H727; first compound 0.5 µM) was 0.451, the relative viability (NCI-H838; first compound 0.005 µM) was 0.212 and the relative viability (NCI-H838; first compound 0.01581 µM) was 0.31. The relative viability (NCI-H838; first compound 0.05 µM) was 0.292, the relative viability (NCI-H838; first compound 0.1581 µM) was 0.307 and the relative viability (NCI-H838; first compound 0.5 µM) was 0.295.
